From patent US4400378A, “Pharmaceutical composition for the treatment of glaucoma” (priority 1981, dated 1983)
Counter-ions that a name gives are not always drawn.

Assays:
[1] = Oral acute toxicity (LD50) in the mouse; details: in vivo
Excerpt: Furthermore, the compounds of the formula I and their non-toxic, pharmacologically acceptable acid addition salts show good compatibility.

intraocular pressure = test: Intraocular pressure in rabbits after topical application to the eye (tonometric, Alcon Applanation Pneumotonograph); type: in vivo, white New Zealand rabbits; details: 2 drops (50 μl) per eye, rabbit
Experimental: B=2-Amino-6-allyl-5,6,7,8-tetrahydro-4H-thiazolo[4,5-d]azepine dihydrochloride. The tests were performed on white New Zealand rabbits of both sexes having a body weight of 2.5 to 3 kg. Each rabbit was used for 4 tests at intervals of at least 3 days between tests.
The intraocular pressure was measured tonometrically with an Alcon Applanation Pneumotonograph (APTG) calibrated for the human eye. By means of a factor obtained by comparison of the manometric values and APTG values in rabbits anesthetized with urethane, the so-called real pressures were determined. Moreover, before each measurement the cornea was anesthetized with 20 μl of an 0.05% oxybuprocain [2-(diethylamino)-ethyl-4-amino-3-butoxy-benzoate] solution.
The test compound was dropped at different concentrations directly into each eye, 2 drops (50 μl) per eye.

Compound	LD50 [1]	Reduction of the intraocular pressure in % after one hour (intraocular pressure; 0.3% concentration)	Reduction of the intraocular pressure in % after one hour (intraocular pressure; 1.0% concentration)	Reduction of the intraocular pressure in % after one hour (intraocular pressure; 3.0% concentration)	Values of the intraocular pressure in mmHg after one hour (intraocular pressure; 0.01% concentration)	Values of the intraocular pressure in mmHg after one hour (intraocular pressure; 0.03% concentration)	Values of the intraocular pressure in mmHg after one hour (intraocular pressure; concentration 0.3 (% not given))	Values of the intraocular pressure in mmHg after one hour (intraocular pressure; concentration 1.0 (% not given))
CCN1CCc2nc(N)oc2CC1 [Compound A, 2-Amino-6-ethyl-5,6,7,8-tetrahydro-4H-oxoazolo[4,5-d]azepine dihydrochloride]	2.21 mg/kg	-15%	-21%	-32%	–	–	–	–
C=CCN1CCc2nc(N)sc2CC1.Cl.Cl [Compound B, 2-Amino-6-allyl-5,6,7,8-tetrahydro-4H-thiazolo[4,5-d]azepine dihydrochloride]	455 mg/kg	–	–	–	15 mmHg	14.5 mmHg	13 mmHg	10 mmHg
